From patent US8778873B2, “Parenteral combination therapy for infective conditions with drug resistant bacterium” (Venus Remedies Limited, priority 2005, dated 2014)
Where a name gives a salt, the structure may show the parent alone.

Experiments:
Experiment in all cases: Average MIC data, growth at serial concentrations
Assay type in all cases: cell-based
Enterococcus = system: Enterococcus
Description: (§1) Minimum Inhibitory Concentration Data
(§2) Average MIC data with growth details in various concentration of ceftriaxone and vancomycin combination of the present invention, ceftriaxone alone and vancomycin alone with following bacteria such as MSSA, Enterococcus, S. pneumoniae, Penicillin resistant streptococcus pneumoniae, MRSA.

S. aurens = system: S. aurens
Description: as §1, §2

S. aurens (MRSA) = system: S. aurens (MRSA)
Description: as §1, §2

Streptococcus pneumoniae = system: Streptococcus pneumoniae
Description: as §1, §2

S. pneumoniae = system: S. pneumoniae
Description: as §1, §2

Measured: Growth at concentration (Average MIC data)

CO/N=C(\C(=O)N[C@@H]1C(=O)N2C(C(=O)O)=C(CSc3nc(=O)c(=O)[nH]n3C)CS[C@H]12)c1csc(N)n1 [Ceftriaxone, (Z)-7-[2-(2-Aminothiazole-4-yl)-2-methoxyiminoacetamido]-3-[(2,5-dihydro-6-hydroxy-2-methyl-5-oxo-1,2,4-triazin-3-yl)thiomethyl]-3-cephem-4-carboxylic acid, disodium salt, Sesquaterhydrate]
Growth Found: Enterococcus; 0.125 μg/ml | Enterococcus; 0.25 μg/ml | Enterococcus; 0.5 μg/ml | S. aurens; 0.125 μg/ml | S. aurens; 0.25 μg/ml | S. aurens; 0.5 μg/ml | S. aurens (MRSA); 0.125 μg/ml | S. aurens (MRSA); 0.25 μg/ml | S. aurens (MRSA); 0.5 μg/ml | S. aurens (MRSA); 1 μg/ml | S. aurens (MRSA); 2 μg/ml | S. aurens (MRSA); 4 μg/ml | S. aurens (MRSA); 8 μg/ml | S. aurens (MRSA); 16 μg/ml | S. aurens (MRSA); 32 μg/ml | Streptococcus pneumoniae; 0.125 μg/ml | Streptococcus pneumoniae; 0.25 μg/ml | Streptococcus pneumoniae; 0.5 μg/ml | Streptococcus pneumoniae; 1 μg/ml | Streptococcus pneumoniae; 2 μg/ml | S. pneumoniae; 0.125 μg/ml | S. pneumoniae; 0.25 μg/ml
No growth: Enterococcus; 1 μg/ml | Enterococcus; 2 μg/ml | Enterococcus; 4 μg/ml | Enterococcus; 8 μg/ml | Enterococcus; 16 μg/ml | Enterococcus; 32 μg/ml | Enterococcus; 64 μg/ml | Enterococcus; 128 μg/ml | S. aurens; 1 μg/ml | S. aurens; 2 μg/ml | S. aurens; 4 μg/ml | S. aurens; 8 μg/ml | S. aurens; 16 μg/ml | S. aurens; 32 μg/ml | S. aurens; 64 μg/ml | S. aurens; 128 μg/ml | S. aurens (MRSA); 64 μg/ml | S. aurens (MRSA); 128 μg/ml | Streptococcus pneumoniae; 4 μg/ml | Streptococcus pneumoniae; 8 μg/ml | Streptococcus pneumoniae; 16 μg/ml | Streptococcus pneumoniae; 32 μg/ml | Streptococcus pneumoniae; 64 μg/ml | Streptococcus pneumoniae; 128 μg/ml | S. pneumoniae; 0.5 μg/ml | S. pneumoniae; 1 μg/ml | S. pneumoniae; 2 μg/ml | S. pneumoniae; 4 μg/ml | S. pneumoniae; 8 μg/ml | S. pneumoniae; 16 μg/ml | S. pneumoniae; 32 μg/ml | S. pneumoniae; 64 μg/ml | S. pneumoniae; 128 μg/ml
